Counter-ions that a name gives are not always drawn.
test system: clot lysis (fibrinolysis) in diluted human citrated plasma, tPA-induced; assay: Plasma-based clot lysis assay (5%); format: biochemical; settings: human citrated platelet-poor plasma 5%, fibrinogen 3 μM, CaCl2 10 mM, tPA 0.2 nM, 37° C., OD at 405 nm
Procedure, shortened: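 Clot formation and breakdown triggered by CaCl2 (10 mM final) plus tPA (0.2 nM final) at 37° C, in 5% diluted human plasma supplemented with 3 μM fibrinogen (HEPES/NaCl/Brij buffer, pH 7). IC50 obtained from time courses relative to a blank control.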

Compared with `Cc1cc(C(F)(F)F)ccc1-c1noc(-c2cnn3c(C4CCNCC4)cc(=O)[nH]c23)n1` [Example 139, 3-{3-[2-Methyl-4-(trifluoromethyl)phenyl]-1,2,4-oxadiazol-5-yl}-7-(piperidin-4-yl)pyrazolo[1,5-a]pyrimidin-5(4H)-one hydrochloride], `COc1ccc(-c2noc(-c3cnn4c(C5CCNCC5)cc(=O)[nH]c34)n2)c(C)c1` [Example 154, 3-[3-(4-methoxy-2-methylphenyl)-1,2,4-oxadiazol-5-yl]-7-(piperidin-4-yl)pyrazolo[1,5-a]pyrimidin-5(4H)-one hydrochloride] is 1.7-fold lower in IC50: 41 nM for the first, 24 nM for the second.

First: O=C(c1cnn2c(C3CCNCC3)cc(=O)[nH]c12)N1CC(F)(F)C1 [Example 326, 3-[(3,3-difluoroazetidin-1-yl)carbonyl]-7-(piperidin-4-yl)pyrazolo[1,5-a]pyrimidin-5 (4H)-one hydrochloride]
Second: CCC(=O)c1cnn2c(C3CCNCC3)cc(=O)[nH]c12 [Example 371, 7-(piperidin-4-yl)-3-propanoylpyrazolo[1,5-a]pyrimidin-5(4H)-one hydrochloride]
The IC50 of the first is 2.5-fold lower: 12 nM for the first, 30 nM for the second. The first is the more potent here.

Going from `CCCOC(=O)c1c(C(F)(F)F)nn2c(C3CCNCC3)cc(=O)[nH]c12` [Example 459, Propyl 5-oxo-7-(piperidin-4-yl)-2-(trifluoromethyl)-4,5-dihydropyrazolo[1,5-a]pyrimidine-3-carboxylate hydrochloride] to `COC(=O)c1c(C(F)(F)F)nn2c(C3CCNCC3)cc(=O)[nH]c12` [Example 454, Methyl 5-oxo-7-(piperidin-4-yl)-2-(trifluoromethyl)-4,5-dihydropyrazolo[1,5-a]pyrimidine-3-carboxylate hydrochloride], the IC50 falls from 83 nM to 34 nM (2.4-fold). The second is the more potent here.

`Cc1ccc(-c2noc(-c3cnn4c(C5CCNCC5)cc(=O)[nH]c34)n2)cc1Cl` [Example 123, 3-[3-(3-Chloro-4-methylphenyl)-1,2,4-oxadiazol-5-yl]-7-(piperidin-4-yl)pyrazolo[1,5-a]pyrimidin-5(4H)-one hydrochloride] and `Cc1ccc(-c2noc(-c3cnn4c(C5CCNCC5)cc(=O)[nH]c34)n2)cc1F` [Example 117, 3-[3-(3-Fluoro-4-methylphenyl)-1,2,4-oxadiazol-5-yl]-7-(piperidin-4-yl)pyrazolo[1,5-a]pyrimidin-5(4H)-one hydrochloride] are within 1.5-fold of each other in IC50: 47 nM for the first, 38 nM for the second.

Going from `O=c1cc(C2CCNCC2)n2ncc(-c3nc(C(F)(F)F)cs3)c2[nH]1` [Example 351, 7-(piperidin-4-yl)-3-[4-(trifluoromethyl)-1,3-thiazol-2-yl]pyrazolo[1,5-a]pyrimidin-5 (4H)-one hydrochloride] to `O=c1cc(C2CCNCC2)n2ncc(-c3ccccc3C(F)(F)F)c2[nH]1` [Example 63, 7-(Piperidin-4-yl)-3-[2-(trifluoromethyl)phenyl]pyrazolo[1,5-a]pyrimidin-5(4H)-one hydrochloride], the IC50 rises from 26 nM to 40 nM (1.5-fold).

`Cc1nn2c(C3CCNCC3)cc(=O)[nH]c2c1C#N` [Example 8, 2-Methyl-5-oxo-7-(piperidin-4-yl)-4,5-dihydropyrazolo[1,5-a]pyrimidine-3-carbonitrile trifluoroacetate] and `Cc1nn2c(C3CCNCC3)cc(=O)[nH]c2c1C(=O)OC(C)C` [Example 366, Propan-2-yl 2-methyl-5-oxo-7-(piperidin-4-yl)-4,5-dihydropyrazolo[1,5-a]pyrimidine-3-carboxylate hydrochloride] are within 1.5-fold of each other in IC50: 29 nM for the first, 27 nM for the second.

First: O=C(NC1(Cc2ccccc2)CC1)c1cnn2c(C3CCNCC3)cc(=O)[nH]c12 [Example 94, N-(1-benzylcyclopropyl)-5-oxo-7-(piperidin-4-yl)-4,5-dihydropyrazolo[1,5-a]pyrimidine-3-carboxamide hydrochloride]
Second: O=C(NCc1ccccc1)c1cnn2c(C3CCNCC3)cc(=O)[nH]c12 [Example 22, N-Benzyl-5-oxo-7-(piperidin-4-yl)-4,5-dihydropyrazolo[1,5-a]pyrimidine-3-carboxamide hydrochloride]
The IC50 of the first is 2.3-fold higher: 30 nM for the first, 13 nM for the second.

`O=c1cc(C2CCNCC2)n2ncc(-c3nc(-c4ccccc4OC(F)F)cs3)c2[nH]1` [Example 337, 3-{4-[2-(difluoromethoxy)phenyl]-1,3-thiazol-2-yl}-7-(piperidin-4-yl)pyrazolo[1,5-a]pyrimidin-5(4H)-one hydrochloride] and `Cc1ccc(-c2csc(-c3cnn4c(C5CCNCC5)cc(=O)[nH]c34)n2)cc1` [Example 309, 3-[4-(4-methylphenyl)-1,3-thiazol-2-yl]-7-(piperidin-4-yl)pyrazolo[1,5-a]pyrimidin-5(4H)-one hydrochloride] are within 1.5-fold of each other in IC50: 30 nM for the first, 41 nM for the second.

`CC1(c2nc(-c3cnn4c(C5CCNCC5)cc(=O)[nH]c34)no2)CCCC1` (racemic) [Example 386, Rac-3-[5-(1-Methylcyclopentyl)-1,2,4-oxadiazol-3-yl]-7-(piperidin-4-yl)pyrazolo[1,5-a]pyrimidin-5(4H)-one hydrochloride] and `CC1(c2nc(-c3cnn4c(C5CCNCC5)cc(=O)[nH]c34)no2)CC1` (racemic) [Example 381, Rac-3-[5-(1-Methylcyclopropyl)-1,2,4-oxadiazol-3-yl]-7-(piperidin-4-yl)pyrazolo[1,5-a]pyrimidin-5(4H)-one hydrochloride] are within 1.5-fold of each other in IC50: 28 nM for the first, 29 nM for the second.

Compared with `Cc1ccc(-c2nc(-c3cnn4c(C5CCNCC5)cc(=O)[nH]c34)no2)cc1` [Example 220, 3-[5-(4-methylphenyl)-1,2,4-oxadiazol-3-yl]-7-(piperidin-4-yl)pyrazolo[1,5-a]pyrimidin-5 (4H)-one hydrochloride], `O=c1cc(C2CCNCC2)n2ncc(-c3noc(-c4ccc(C(F)(F)F)cc4)n3)c2[nH]1` [Example 231, 7-(piperidin-4-yl)-3-{5-[4-(trifluoromethyl)phenyl]-1,2,4-oxadiazol-3-yl}pyrazolo[1,5-a]pyrimidin-5(4H)-one hydrochloride] is 2.3-fold higher in IC50: 15 nM for the first, 34 nM for the second. The first is the more potent here.

Going from `O=c1cc(C2CCNCC2)n2nc(-c3ccccc3)c(Br)c2[nH]1` [Example 29, 3-Bromo-2-phenyl-7-(piperidin-4-yl)pyrazolo[1,5-a]pyrimidin-5(4H)-one hydrochloride] to `O=c1cc(C2CCNCC2)n2ncc(-c3noc(-c4ccccc4F)n3)c2[nH]1` [Example 216, 3-[5-(2-fluorophenyl)-1,2,4-oxadiazol-3-yl]-7-(piperidin-4-yl)pyrazolo[1,5-a]pyrimidin-5 (4H)-one hydrochloride], the IC50 rises from 20 nM to 34 nM (1.7-fold). The first is the more potent here.

`Cc1nn2c(C3CCNCC3)cc(=O)[nH]c2c1C(=O)N1CCC(C)(C)CC1` [Example 434, 3-[(4,4-dimethyl-piperidin-1-yl)carbonyl]-2-methyl-7-(piperidin-4-yl) pyrazolo[1,5-a] pyrimidin-5(4H)-one hydrochloride] and `CCN(C(=O)c1c(C)nn2c(C3CCNCC3)cc(=O)[nH]c12)C1CC1` [Example 400, N-cyclopropyl-N-ethyl-2-methyl-5-oxo-7-(piperidin-4-yl)-4,5-dihydro-pyrazolo[1,5-a] pyrimidine-3-carboxamide hydrochloride] are the same in IC50: 32 nM for the first, 32 nM for the second.

`CC(C)S(=O)(=O)Cc1noc(-c2cnn3c(C4CCNCC4)cc(=O)[nH]c23)n1` [Example 201, 3-{3-[(isopropylsulfonyl)methyl]-1,2,4-oxadiazol-5-yl}-7-(piperidin-4-yl)pyrazolo[1,5-a]pyrimidin-5(4H)-one hydrochloride] and `NC(=O)c1noc(-c2cnn3c(C4CCNCC4)cc(=O)[nH]c23)n1` [Example 200, 5-[5-oxo-7-(piperidin-4-yl)-4,5-dihydropyrazolo[1,5-a]pyrimidin-3-yl]-1,2,4-oxadiazole-3-carboxamide hydrochloride] are the same in IC50: 34 nM for the first, 34 nM for the second.

Compared with `CC(C)(C)CC1CC(c2cc(=O)[nH]c3c(-c4nc(C(C)(C)C)no4)cnn23)CCN1` (stereo not shown) [Example 303, 3-(3-tert-butyl-1,2,4-oxadiazol-5-yl)-7-[2-(2,2-dimethylpropyl)piperidin-4-yl]pyrazolo[1,5-a]pyrimidin-5(4H)-one hydrochloride], `O=c1cc(C2CCNCC2)n2ncc(-c3nc(-c4ccco4)no3)c2[nH]1` [Example 110] is 2.2-fold higher in IC50: 38 nM for the first, 82 nM for the second. The first is the more potent here.

`COc1ccc(-c2noc(-c3cnn4c(C5CCNCC5)cc(=O)[nH]c34)n2)cc1F` [Example 122, 3-[3-(3-Fluoro-4-methoxyphenyl)-1,2,4-oxadiazol-5-yl]-7-(piperidin-4-yl)pyrazolo[1,5-a]pyrimidin-5(4H)-one hydrochloride] and `O=c1cc(C2CCNCC2)n2ncc(-c3noc(Cc4cccc(Cl)c4)n3)c2[nH]1` [Example 217, 3-[5-(3-chlorobenzyl)-1,2,4-oxadiazol-3-yl]-7-(piperidin-4-yl)pyrazolo[1,5-a]pyrimidin-5(4H)-one hydrochloride] are within 1.5-fold of each other in IC50: 35 nM for the first, 36 nM for the second.

`Cc1ccc(F)cc1NC(=O)c1cnn2c(C3CCNCC3)cc(=O)[nH]c12` [Example 76, N-(5-fluoro-2-methylphenyl)-5-oxo-7-(piperidin-4-yl)-4,5-dihydropyrazolo[1,5-a]pyrimidine-3-carboxamide] and `O=c1cc(C2CCNCC2)n2ncc(-c3nnc(-c4ccncc4)o3)c2[nH]1` [Example 185, 7-(piperidin-4-yl)-3-[5-(pyridin-4-yl)-1,3,4-oxadiazol-2-yl]pyrazolo[1,5-a]pyrimidin-5 (4H)-one hydrochloride] are within 1.5-fold of each other in IC50: 29 nM for the first, 38 nM for the second.

`N#Cc1ccc(-c2nnc(-c3cnn4c(C5CCNCC5)cc(=O)[nH]c34)o2)cc1` [Example 167, 4-{5-[5-oxo-7-(piperidin-4-yl)-4,5-dihydropyrazolo[1,5-a]pyrimidin-3-yl]-1,3,4-oxadiazol-2-yl}benzonitrile hydrochloride] and `Cc1nn2c(C3CCNCC3)cc(=O)[nH]c2c1C(=O)N(C)Cc1ccccn1` [Example 428, N,2-dimethyl-5-oxo-7-(piperidin-4-yl)-N-(pyridin-2-ylmethyl)-4,5-dihydro-pyrazolo[1,5-a] pyrimidine-3-carboxamide hydrochloride] are within 1.5-fold of each other in IC50: 34 nM for the first, 29 nM for the second.
